Converted amounts (≈) assume the structure as drawn. Counter-ions that a name gives are not always drawn. Like-named read-outs stand apart in the source and are kept apart here.
Tests used:
[1] = system: Staphylococcus aureus 209P; experiment: MIC, Staphylococcus aureus 209P; type: cell-based; details: read-out: MIC (Minimal Inhibitory Concentration)
Protocol: (§1) The carbapenem compounds obtained in Examples 3, 5 and 8 were evaluated for antimicrobial activity, the integrated value of a concentration in blood (Area Under the Curve: AUC), recovery from urine and decomposition by human kidney dehydropeptidase-1 by using imipenem, meropenem and cephalosporin derivatives (A) and (B) as controls.
(§2) 1) MIC (Minimal Inhibitory Concentration) (γ/ml):
(§3) Antimicrobial activity was evaluated by using MIC.

Entercoccus SR1004 = experiment: MIC, Entercoccus SR1004; type: cell-based; details: read-out: MIC (Minimal Inhibitory Concentration)
Protocol: as §1, §2, §3

in vivo [2] = details: monkey, iv
in vitro = in vitro ADME, human; details: human, kidney dehydropeptidase-1
Protocol: as §1

[3] = system: human kidney dehydropeptidase-1; experiment: in vitro; type: in vitro ADME
Protocol: as §1

[4] = system: Pseudomonas aeruginosa SR1012; experiment: MIC, Pseudomonas aeruginosa SR1012; type: cell-based
Protocol: as §1, §2, §3

[5] = system: Gram-positive bacteria and Gram-negative bacteria; experiment: Antimicrobial activity against Gram-positive and Gram-negative bacteria (overall); type: cell-based; details: as compared with imipenem, meropenem and cephalosporin derivatives (A) and (B); in words
Protocol: as §1, §2, §3

in vivo [6] = details: mouse, iv
Protocol: as §1
2) Concentration in Blood (γ/ml):
Each compound was intravenously injected into a mouse, and the concentration in the blood 15 minutes after the injection was measured.
3) Recovery from Urine (%):
Each compound was intravenously injected into a mouse and a monkey, and the content in the urine 24 hours after the injection was measured. A rate of recovery was obtained from the content.

[7] = Pseudomonas aeruginosa SR1012, read-out: MIC (Minimal Inhibitory Concentration)

| SMILES | MIC ([1]; Staphylococcus aureus 209P) [µg/mL] | MIC (Entercoccus SR1004; Entercoccus SR1004) [µg/mL] | AUC (in vivo [2]) [ng·h/mL] | metabolised (in vitro) [%] | hydrolysis rate in the body [3] | MIC [4, 7] [µg/mL] | antimicrobial activity against Gram-positive bacteria and Gram-negative bacteria [5] | AUC (in vivo [6]) [ng·h/mL] | concentration at 0.25 h (in vivo [6]) [ng/mL] | MIC (Entercoccus SR1004) [µg/mL] | MIC ([1]; Staphylococcus aureus, 209P) [µg/mL] | MIC ([4]; Pseudomonas aeruginosa, SR1012, read-out: MIC (Minimal Inhibitory Concentration)) [µg/mL] |
| --- | --- | --- | --- | --- | --- | --- | --- | --- | --- | --- | --- | --- |
| CN1CCC(C2=C(C(=O)O)N3C(=O)C(NC(=O)C(=NO)c4csc(N)n4)C3SC2)O1 (stereo not drawn) [Cephalosporin (A)] | 0.78 (≈ 1.72 µM) |  |  |  |  |  |  |  |  |  |  |  |
| C[N+]1(C)CCC(C2=C(C(=O)[O-])N3C(=O)C(NC(=O)C(=NO)c4csc(N)n4)C3SC2)O1 (stereo not drawn) [Cephalosporin (B)] | 0.2 (≈ 0.427 µM) |  |  |  |  |  |  |  |  |  |  |  |
| C[C@H]1C([C@H]2CC[N+](C)(C)O2)=C(C(=O)[O-])N2C(=O)[C@H]([C@@H](C)O)C12 (stereo partly drawn) [Example 3, (1S,6S)-6-((R)-1-hydroxyethyl)-2-((5R)-2,2-dimethylisoxazolidinio-5-yl)-1-methyl-1-carba-2-penem-3-carboxylate] | 0.0125 (≈ 0.0403 µM) | 0.78 (≈ 2.51 µM) | 35200 | 97 | low hydrolysis rate | 0.78 (≈ 2.51 µM) | excellent antimicrobial activity | 19000 | 36300 |  |  |  |
| C[C@H]1C([C@@H]2CC[N+](C)(C)O2)=C(C(=O)[O-])N2C(=O)[C@H]([C@@H](C)O)C12 (stereo partly drawn) [Example 5, (1S,6S)-6-((R)-1-hydroxyethyl)-2-((5S)-2,2-dimethylisoxazolidinio-5-yl)-1-methyl-1-carba-2-penem-3-carboxylate] | 0.0125 (≈ 0.0403 µM) | 0.78 (≈ 2.51 µM) |  |  | low hydrolysis rate | 1.56 (≈ 5.03 µM) | excellent antimicrobial activity |  |  |  |  |  |
| C[C@H]1C([C@@H]2CCN(C)O2)=C(C(=O)O)N2C(=O)[C@H]([C@@H](C)O)C12 (stereo partly drawn) [Example 8, sodium (1S,6S)-6-((R)-l-hydroxyethyl)-1-methyl-2-((5S)-2-methylisoxazolidine-5-yl)-1-carba-2-penem-3-carboxylate salt] | 0.1 |  |  |  | low hydrolysis rate |  | excellent antimicrobial activity |  |  |  |  |  |
| C[C@@H](O)[C@H]1C(=O)N2C(C(=O)O)=C(SCCN=CN)C[C@H]12 [Imipenen, imipenem] |  |  | 13300 | 73 |  |  |  | 8800 | 20600 | 1.56 (≈ 5.21 µM) | 0.0125 (≈ 0.0418 µM) | 1.56 (≈ 5.21 µM) |
| C[C@@H](O)[C@H]1C(=O)N2C(C(=O)O)=C(S[C@@H]3CN[C@H](C(=O)N(C)C)C3)[C@H](C)[C@H]12 [Meropenen, meropenem] | 0.1 (≈ 0.261 µM) | 6.25 (≈ 16.3 µM) | 17200 | 87 |  | 0.78 (≈ 2.03 µM) |  | 5200 | 13700 |  |  |  |
